{"source": "patent US8247552B2", "about": "“Analogs of dehydrophenylahistins and their therapeutic use” (Nereus Pharmaceuticals, Inc., priority 2002, dated 2012)", "key": {"[1]": {"tested_on": "Candida glabrata", "assay": "Antifungal susceptibility testing (NCCLS M38-A), MIC/MFC", "format": "cell-based", "details": "Table 23", "method": "(§1) Specifically, disclosed compounds were evaluated alongside commercially available microtubulin inhibitors as well as recognized antifungal agents.\n(§2) Microorganisms against which these compounds were tested included: Candida albicans, Candida glabrata, Aspergillus fumigatus, Trichophyton rubrum, Trichophyton mentagrophytes, Epidermophyton floccosum. With the exception of Candida glabrata (one isolate), two isolates of each species were tested.\n(§3) The minimum lethal concentration (MLC) was determined by plating […] from the MIC concentration and each concentration above the MIC. […] When a MIC was obtained, a minimum fungicidal concentration (MFC) was determined to assess the fungistatic/fungicidal nature of the compound."}, "[2]": {"tested_on": "Candida albicans", "assay": "Antifungal susceptibility testing (NCCLS M38-A), MIC/MFC", "format": "cell-based", "details": "Table 23", "method": "as §1, §2, §3"}, "[3]": {"assay": "Physicochemical stability, Z to E migration under light", "details": "visible light, normal room light", "method": "The physicochemical stability is one of the unfavorable problems of dehydroPLH. In phenylahistin, since there is no additional olefin structure at the benzyl part, there is no such problem. […] In the cytotoxic assay, some of the compounds migrate to E-form during the incubation, although this migration probably equilibrates at the 1:1 ratio in the case of dehydroPLH. This migration can be controlled."}, "[4]": {"tested_on": "HuVEC cells", "assay": "Microtubule (tubulin) depolymerization, α-tubulin staining", "details": "for microtubule depolymerization in HuVEC cells: 2 μM, thirty minutes exposure", "experimental": "The plates were returned to the incubator for 2 days.\n20 mM stock solutions of compounds were prepared in 100% DMSO and stored at −80° C. 400× concentrated dilutions of the compounds were prepared in 100% DMSO. 5 μl volumes of the dilutions were added to individual wells resulting in a final concentration of 20 nM. […] The plates were returned to the incubator for 30 minutes.\nThe cells were rinsed in dPBS before fixation in 10% (v/v) neutral buffered formalin for 10 minutes at room temperature. Following fixation, α-tubulin was visualized by indirect immunofluorescence. Specifically, the cells were permeabilized in 0.2% (v/v) triton X-100/dPBS for 10 minutes. The cells were washed prior to transferring the coverslips to a humidified chamber, the coverslips were blocked for two hours in antibody buffer [2% (w/v) BSA/0.1% (v/v) Tween 20/dPBS]. The coverslips were incubated with 50 μl of 0.1 μg/ml mouse α-tubulin (Molecular Probes) in antibody buffer for 1 hour before washing and incubation with 50 μl of 1 μg/ml goat anti-mouse FITC (Jackson ImmunoResearch Laboratories) for one hour in the dark. Finally, the cells were washed and treated with 2 μg/ml DAPI (Molecular Probes) for 10 minutes before rinsing in H2O and mounting with Vectashield (Vector Labs) mounting media. The cells were imaged using a 60× oil immersion objective on an upright microscope (Olympus BX51). The images were digitally captured using a CCD camera and Magnafire 2.0 software (Olympus). Post image processing was performed in Photoshop Elements 2.0 (Adobe) and in Microsoft Powerpoint.\nHuman umbilical vein endothelial cells (HuVECs; Cambrex CC2519A) were maintained at subconfluent densities in EGM-2 (Cambrex) media. […] The plates were returned to the incubator for 2 days.\nStock (20 mM) solutions of the test compounds were prepared in 100% DMSO. 400× concentrated dilutions of the compounds were prepared in 100% DMSO. 5 μl volumes of the dilutions were added to individual wells resulting in a final concentration of 200 nM. […] The plates were returned to the incubator for 30 minutes.\nThe cells were rinsed in dPBS before fixation in 10% (v/v) neutral buffered formalin for 10 minutes at room temperature. Following fixation, α-tubulin was visualized by indirect immunofluorescence. Specifically, the cells were permeabilized in 0.2% (v/v) triton X-100/dPBS for 10 minutes. The cells were washed prior to transferring the coverslips to a humidified chamber, the coverslips were blocked for two hours in antibody buffer (2% (w/v) BSA/0.1% (v/v) Tween 20/dPBS). The coverslips were incubated with 50 μl of 0.1 μg/ml mouse α-tubulin (Molecular Probes) in antibody buffer for 1 hour before washing and incubation with 50 μl of 1 μg/ml goat anti-mouse FITC (Jackson ImmunoResearch Laboratories) for one hour in the dark. Finally, the cells were washed and treated with 2 μg/ml DAPI (Molecular Probes) for 10 minutes before rinsing in H2O and mounting with Vectashield (Vector Labs) mounting media. The cells were imaged using a 60× oil immersion objective on an upright microscope (Olympus BX51). The images were digitally captured using a CCD camera and Magnafire 2.0 software (Olympus). Post image processing was performed in Photoshop Elements 2.0 (Adobe) and in Microsoft Powerpoint."}, "[5]": {"tested_on": "human hepatic P450s", "experimental": "In the recent his study, (±)-phenylahistin was treated with rat hepatic microsome or human hepatic P450s."}, "[6]": {"tested_on": "Trichophyton rubrum", "assay": "Antifungal susceptibility testing (NCCLS M38-A), MIC/MFC", "format": "cell-based", "details": "for antifungal potency compared with griseofulvin: dermatophyte isolates", "method": "as §1, §2, §3"}, "[7]": {"tested_on": "Trichophyton mentagrophytes", "assay": "Antifungal susceptibility testing (NCCLS M38-A), MIC/MFC", "format": "cell-based", "method": "Specifically, disclosed compounds were evaluated alongside commercially available microtubulin inhibitors as well as recognized antifungal agents. […].\nas §2\nDrug concentrations were 0.03-16 μg/ml for the investigational compounds, 0.015-8 μg/ml for itraconazole and griseofulvin.\nas §3, with “compound. […] The compound is scored as fungistatic if the cells are able to resume growth and fungicidal if no regrowth is possible because the compound had killed the organisms.” for “compound.”"}, "[8]": {"tested_on": "Jurkat cells (human T cell leukemia line)", "assay": "DNA fragmentation (DNA laddering) by gel electrophoresis", "format": "cell-based", "description": "A late stage characteristic of apoptosis is internucleosomal DNA cleavage that results in a distinctive ladder pattern that can be visualized by gel electrophoresis."}, "[9]": {"tested_on": "PC-3 prostatic adenocarcinoma cells", "assay": "Tumor cytotoxicity assay, resazurin fluorescence, 48 h", "format": "cell-based", "details": "Homo sapiens, Table 1", "experimental": "10× concentrated serial dilutions of the two compounds were prepared in appropriate culture medium for final concentrations ranging from 2.0×10^−5 M to 2.0×10^−10 M. Ten μl volumes of the 10× serial dilutions were added to the test wells in triplicate and the plates returned to the incubator for 48 hours.\nResazurin dye without cells was used to determine the background, which was subtracted from the data for all experimental wells. The data were analyzed using Prism software (GraphPad Software).\nPC-3, a human prostate adenocarcinoma, was maintained in F12K complete medium (F12K medium supplemented with 10% FBS; 2 mM Glutamine; 1% HEPES; and Pen/Strep at 100 IU/ml and 100 μg/ml, respectively).\n20 mM stock solutions of compounds were prepared in 100% DMSO and stored at −80° C. […] Ten μl volumes of the 10× serial dilutions were added to the test wells in triplicate and the plates returned to the incubator for 48 hours."}, "[10]": {"tested_on": "HT-29 human colon cells", "assay": "Tumor cytotoxicity / cell growth inhibition assay, resazurin fluorescence, 48 h", "format": "cell-based"}, "[11]": {"tested_on": "HuVEC monolayer", "assay": "HuVEC monolayer permeability to FITC-Dextran", "format": "cell-based, human", "experimental": "The enhanced permeability of HuVEC cells to a fluorescent-labeled dextran is used as a proxy assay for vascular collapse.\nHuman umbilical vein endothelial cells (HuVECs; Cambrex CC2519A) were maintained at subconfluent densities in EGM-2 (Cambrex) media. […] For monolayer permeability assays, HuVEC cells were seeded at 1×10^5 cells/ml in EGM-2 media on Fibronectin-coated 3.0 μm Fluoroblok inserts (Becton Dickinson) in 24-well plates. The plates were returned to the incubator for 4 days to allow the cells to reach confluency.\nStock solutions (20 mM) of the test compounds were prepared in 100% DMSO. 10× concentrated serial dilutions of the compounds were prepared in EGM-2. 10 μl volumes of the serial dilutions were added to the test inserts in duplicate resulting in final concentrations ranging from 2 μM to 2 nM.\nThe final concentration of FITC-Dextran was 1 mg/ml."}, "[12]": {"tested_on": "MES-SA/Dx5 (Taxol resistant) human uterine sarcoma", "assay": "Cytotoxicity / growth inhibition in multidrug resistant uterine sarcoma cells", "format": "cell-based", "details": "for IC50: Table 13, III", "method": "1) Human Uterine Sarcoma Tumor Cell Line Pair: MES-SA (Taxol Sensitive) and MES-SA/Dx5 (Taxol Resistant).\nHL-60 and HL-60/MX2 cells were both seeded at 5×10^4 cells/well in 90 μl complete media into 96 well plates on the day of compound addition. […] Ten μl volumes of the 10× serial dilutions were added to the test wells in triplicate and the plates returned to the incubator for 48 hours.\nResazurin dye in medium without cells was used to determine the background, which was subtracted from the data for all experimental wells.\nThe multidrug resistant MES-SA/Dx5 tumor cell line was derived from the human uterine sarcoma MES-SA tumor cell line and expresses elevated P-Glycoprotein (P-gp), an ATP dependent efflux pump. […] Paclitaxel, a known substrate of the P-gp pump was included as a control."}, "[13]": {"tested_on": "MCF7 cells (GFP-alpha-tubulin)", "assay": "Microtubule dynamic instability in living MCF7 cells (time-lapse microscopy)", "format": "cell-based, human", "details": "concentrations effecting 25% or 50% of maximal mitotic block"}, "[14]": {"tested_on": "N202 mammary tumor vasculature", "assay": "Murine syngeneic pseudo-orthotopic breast cancer model, dorsal skinflap chamber, vascular targeting", "description": "A murine syngeneic “pseudo-orthotopic” breast cancer model was used to address these issues. […] To create the “pseudo-orthotopic milieu,” the coverslip of a dorsal skinflap chamber was removed and small pieces of mammary fatpad from donor mice were implanted into the chamber. On top of the fatpad graft, tumor spheroids containing N202 mammary tumor cells transduced with Histone (H2B)-green fluorescent protein (GFP) were applied. The use of H2B-GFP transduced cells allows for visualizing tumor growth and monitoring mitosis and apoptosis.\nFluorescence video microscopy allows for the relatively non-invasive study of tumor microcirculation in conscious mice.\nTumor area, blood flow rate, and vascular density within and surrounding the tumor were visualized. Real-time observations were recorded at various time-points using still photos and video microscopy."}, "[15]": {"tested_on": "P22 rat sarcoma", "assay": "Tumor necrosis in the P22 rat sarcoma model", "format": "in vivo", "details": "7.5 and 15 mg/kg IP, 24 hours post-dose", "description": "“A dose-escalation study of the novel vascular-targeting agent, ZD6126, in patients with solid tumors,” Proc Am Soc Clin Oncol 2002; 21:abstract 438; each of which is hereby incorporated by reference in its entirety."}, "[16]": {"tested_on": "P22 rat sarcoma tumor blood flow", "assay": "Blood flow in the P22 rat sarcoma model with 125I-IAP", "format": "in vivo", "details": "15 mg/kg IP", "method": "In contrast, blood flow in non-tumor tissues was affected to a much lesser extent at 1 hour (see FIG. 35)."}, "[17]": {"tested_on": "MCF-7 human breast tumor", "assay": "MCF-7 Human Breast Tumor Xenograft Model", "format": "in vivo, mice", "details": "combination with taxotere", "method": "Animals used were (exceptions are indicated for individual studies): female nude mice (nu/nu) between 5 and 6 weeks of age (˜20 g, Harlan); group size was 9-10 mice per group unless otherwise indicated.\nFemale nude mice (˜20 g) were implanted s.c. with 21-day release estrogen (0.25 mg) pellets 24 hours prior to the s.c. implantation with MCF-7 tumor fragments (harvested from s.c. tumors in nude mice hosts). The study then proceeded as described for the HT-29 model, using taxotere as the standard chemotherapy agent.\nIn this model unless otherwise noted for the individual study, the novel compounds were injected via the intraperitoneal route daily on Days 1-5, inclusive (qdx5); taxotere was administered intravenously on Days 1, 3 and 5 (qodx3).\nThe doses of the compounds were administered on Days 1, 2, 3, 4, and 7; Taxotere was administered on Days 1, 3 and 7."}}, "note": "Where two headings read alike, the source gives them in different places."}
{"compound": "C[C@@H]1[C@H](O)[C@@H](C)/C=C/C=C/C=C/C=C/C=C/C=C/C=C/[C@H](O[C@@H]2O[C@H](C)[C@@H](O)[C@H](N)[C@@H]2O)C[C@@H]2O[C@](O)(C[C@@H](O)C[C@@H](O)[C@H](O)CC[C@@H](O)C[C@@H](O)CC(=O)O[C@H]1C)C[C@H](O)[C@H]2C(=O)O", "note": "[amphotericin B, Amphotericin B]", "values": [{"measurement": "MFC C. glabrata", "setting": "[1]", "result": 1, "unit": "µg/mL"}, {"measurement": "MIC C. glabrata", "setting": "[1]", "result": 1, "unit": "µg/mL"}, {"measurement": "MFC C. albicans 10231", "setting": "[2]", "result": 0.5, "unit": "µg/mL"}, {"measurement": "MFC C. albicans 90028", "setting": "[2]", "result": 0.5, "unit": "µg/mL"}, {"measurement": "MIC C. albicans 10231", "setting": "[2]", "result": 0.5, "unit": "µg/mL"}, {"measurement": "MIC C. albicans 90028", "setting": "[2]", "result": 0.5, "unit": "µg/mL"}]}
{"compound": "C=CC(C)(C)c1[nH]cnc1/C=c1\\[nH]c(=O)/c(=C/c2ccccc2)[nH]c1=O", "note": "[dehydroPLH, dehydrophenylahistin]", "values": [{"measurement": "Z to E migration", "setting": "[3]", "result": "Z to E migration frequently occurs"}]}
{"compound": "COc1cc2c(c(OC)c1OC)-c1ccc(OC)c(=O)cc1[C@@H](NC(C)=O)CC2", "note": "[Colchicine]", "values": [{"measurement": "microtubule depolymerization in HuVEC cells", "setting": "[4]", "result": "induced microtubule depolymerization"}]}
{"compound": "(±)-phenylahistin", "values": [{"measurement": "metabolites detected", "setting": "[5]", "result": "at least seven metabolites were detected"}, {"measurement": "share of major metabolites P1 and P3 in recovered metabolites", "setting": "[5]", "result": "more than 60%"}]}
{"compound": "C=CC(C)(C)c1[nH]cnc1/C=C1\\NC(=O)[C@H](Cc2ccccc2)NC1=O", "note": "[(−)-Phenylahistin]", "values": [{"measurement": "potency versus T. rubrum", "setting": "[6]", "result": "significantly less potent than the other compounds"}, {"measurement": "potency versus sensitive T. mentagrophytes isolate", "setting": "[7]", "result": "weaker but more comparable to the others"}]}
{"compound": "C=CC(C)(C)c1[nH]cnc1/C=c1\\[nH]c(=O)/c(=C/c2ccccc2)[nH]c1=O", "note": "[KPU-1, Dehydrophenylahistin]", "values": [{"measurement": "potency versus T. rubrum", "setting": "[6]", "result": "significantly less potent than the other compounds"}, {"measurement": "DNA laddering, potency compared with KPU-2", "setting": "[8]", "result": "much less potent"}, {"measurement": "EC50", "setting": "[9]", "result": 5.4, "unit": "nM"}, {"measurement": "potency versus sensitive T. mentagrophytes isolate", "setting": "[7]", "result": "weaker but more comparable to the others"}]}
{"compound": "COc1cc(/C=c2\\[nH]c(=O)/c(=C/c3nc[nH]c3C(C)(C)C)[nH]c2=O)cc(OC)c1OC", "note": "[KPU-11, tBu-ΔPLH-3,4,5-triOMe]", "values": [{"measurement": "antifungal potency compared with griseofulvin", "setting": "[6]", "result": "equivalent in potency or in some cases more potent than griseofulvin"}, {"measurement": "cytotoxic activity against HT-29 cells", "setting": "[10]", "result": "also showed activity"}]}
{"compound": "CC(=O)O[C@H]1C(=O)[C@@]2(C)[C@H]([C@H](OC(=O)c3ccccc3)[C@]3(O)C[C@H](OC(=O)[C@H](O)[C@@H](NC(=O)c4ccccc4)c4ccccc4)C(C)=C1C3(C)C)[C@]1(OC(C)=O)CO[C@@H]1C[C@@H]2O", "note": "[Taxol]", "values": [{"measurement": "microtubule depolymerization in HuVEC cells", "setting": "[4]", "result": "did not induce microtubule depolymerization"}, {"measurement": "HuVEC monolayer permeability", "setting": "[11]", "result": "inactive"}, {"measurement": "potency in resistant MES-SA/DX5 versus sensitive MES-SA line", "setting": "[12]", "result": "virtually inactive"}, {"measurement": "IC50", "setting": "[12]; cyclosporin A pretreatment, Study II, read-out: MES-SA/DX5 Resistant, CsA Pretreat, IC50 nM", "result": 40, "unit": "nM"}, {"measurement": "IC50", "setting": "[12]; no cyclosporin A, Study I, II, read-out: MES-SA/DX5 Resistant, No CsA, IC50 nM", "result": "> 24000", "unit": "nM"}]}
{"compound": "phenylahistin [halimide]", "values": [{"measurement": "DNA laddering, potency compared with KPU-2", "setting": "[8]", "result": "much less potent"}]}
{"compound": "CC(C)(C)c1[nH]cnc1/C=c1\\[nH]c(=O)/c(=C/c2ccccc2)[nH]c1=O", "note": "[KPU-02]", "values": [{"measurement": "tubulin depolymerization in HuVEC cells", "setting": "[4]; 200 nM, 30 min", "result": "rapidly induce tubulin depolymerization"}, {"measurement": "effect on MT dynamic instability", "setting": "[13]", "result": "did not have a measurable effect on MT dynamic instability"}, {"measurement": "tolerability", "setting": "[14]; i.v. infusion 5-10 mg/kg", "result": "well tolerated"}, {"measurement": "effect on tumor vasculature", "setting": "[14]; single i.v. treatment", "result": "rapid collapse of the central vasculature"}, {"measurement": "tumor necrosis", "setting": "[15]", "result": "dose-dependent tumor necrosis"}, {"measurement": "tumor blood flow, % of vehicle", "setting": "[16]; 1 hour after administration", "result": 23, "unit": "%"}, {"measurement": "tumor blood flow, % vehicle", "setting": "[16]; 24 hours", "result": 59, "unit": "%"}]}
{"compound": "COc1ccc(/C=c2\\[nH]c(=O)/c(=C/c3nc[nH]c3C(C)(C)C)[nH]c2=O)c(OC)c1OC", "note": "[KPU-17, tBu-ΔPLH-2,3,4-TriOMe]", "values": [{"measurement": "antifungal potency compared with griseofulvin", "setting": "[6]", "result": "equivalent in potency or in some cases more potent than griseofulvin"}, {"measurement": "cytotoxic activity against HT-29 cells", "setting": "[10]", "result": "also showed activity"}]}
{"compound": "CC(C)(C)c1[nH]cnc1/C=C1\\NC(=O)[C@H](Cc2ccccc2)NC1=O", "note": "[t-butyl-phenylahistin]", "values": [{"measurement": "antifungal potency compared with griseofulvin", "setting": "[6]", "result": "equivalent in potency or in some cases more potent than griseofulvin"}, {"measurement": "effect on estimated tumor growth with taxotere", "setting": "[17]", "result": "significant potentiation of taxotere"}, {"measurement": "microtubule depolymerization in HuVEC cells", "setting": "[4]", "result": "induced microtubule depolymerization"}, {"measurement": "potency in resistant MES-SA/DX5 versus sensitive MES-SA line", "setting": "[12]", "result": "only slightly reduced"}]}
